Measured values: US20230148602A1, “BENZAMIDE COMPOUND AND HERBICIDE” (Nippon Soda Co., Ltd., priority 2020, published 2023)

Tests used:
[1] = tested on: Alopecurus myosuroides; assay: Test Example 1 foliage treatment, weed killing rate; type: in vivo; conditions: foliar, 504 h, 250 g/ha active ingredient, foliage spray, after 3 weeks
Protocol: (§1) POA allylphenyl ether (4.1 parts by weight), POE-POP glycol (1 part by weight), POE sorbitan laurate (0.8 parts by weight), glycerin (2.6 parts by weight), dimethylformamide (65.9 parts by weight), N-methylpyrrolidone (5.1 parts by weight), cyclohexanone (15.4 parts by weight), and aromatic hydrocarbons (5.1 parts by weight) were mixed to obtain an emulsion.
(§2) The compound of the present invention (4 mg) was dissolved in this emulsion (100 μt) to obtain a test emulsion. POA means “polyoxyalkylene”, POE means “polyoxyethylene”, and POP means “polyoxypropylene”.
(§3) In a 150 cm^2 pot filled with soil, seeds of Digitaria ciliaris, Amaranthus retroflexus, Alopecurus myosuroides and Matricaria chamomilla were respectively sown and covered lightly with soil. Thereafter, they were grown in a greenhouse. When each plant grew to a plant height of 2 to 5 cm, the above test emulsion was diluted with water and sprayed on the foliage with a small sprayer at a spray water volume of 250 L per hectare (the amount of active ingredient of 250 g per hectare).
(§4) After 3 weeks, the above ground weights of weeds in the untreated and treated areas were measured for each plant, and the weed killing rate was calculated by the following calculation formula.
(§5) Weed killing rate (%)=[{(above ground weight of weeds in untreated area)−(above ground weight of weeds in treated area)}/(above ground weight of weeds in untreated area)]×100

[2] = tested on: Amaranthus retroflexus; assay: as above; type: in vivo; conditions: foliar, 504 h, 250 g/ha active ingredient, foliage spray, after 3 weeks
Protocol: as §1, §2, §3, §4, §5

[3] = tested on: Digitaria ciliaris; assay: as above; type: in vivo; conditions: foliar, 504 h, 250 g/ha active ingredient, foliage spray, after 3 weeks
Protocol: as §1, §2, §3, §4, §5

[4] = tested on: Matricaria chamomilla; assay: as above; type: in vivo; conditions: foliar, 504 h, 250 g/ha active ingredient, foliage spray, after 3 weeks
Protocol: as §1, §2, §3, §4, §5

[5] = tested on: Alopecurus myosuroides; assay: Test Example 2 foliage treatment, weed killing rate; type: in vivo; conditions: foliage spray, after 4 weeks
Protocol: (§6) In a 150 cm^2 pot filled with soil, seeds of Alopecurus myosuroides, Setaria faberi and Zea mays were sown and covered lightly with soil. Thereafter, they were grown in a greenhouse. When Alopecurus myosuroides and Setaria faberi grew to a plant height of 2 to 5 cm and Zea mays grew to 30 to 35 cm, the test emulsion obtained in Test Example 1 was diluted with water and sprayed on the foliage with a small sprayer at a spray water volume of 250 L per hectare (the amount of active ingredient of 250 g, 63 g, or 16 g per hectare). Also for the compound represented by the formula (B) (Compound No. B-1), a test emulsion was obtained in the same manner as in Test Example 1, and Test Example 2 was carried out using the emulsion. After 4 weeks, the above ground weights of weeds in the untreated and treated areas were measured for each plant, and the weed killing rate was calculated by the following calculation formula. Weed killing rate (%)=[{(above ground weight of weeds in untreated area)−(above ground weight of weeds in treated area)}/(above ground weight of weeds in untreated area)]×100

[6] = tested on: Setaria faberi; assay: as above; type: in vivo; conditions: foliage spray, after 4 weeks
Protocol: as §6

[7] = tested on: Zea mays; assay: Test Example 2 foliage treatment, weed killing rate on maize (phytotoxicity); type: in vivo; conditions: foliage spray, after 4 weeks, crop (phytotoxicity to maize)
Protocol: as §6

SMILES | pest or weed control at 250 g/ha [1] [%] | pest or weed control at 250 g/ha [2] [%] | pest or weed control at 250 g/ha [3] [%] | pest or weed control at 250 g/ha [4] [%] | melting point [°C] | other results
Cc1c(NC(=O)C(=O)N(C)C)c(Br)cc(F)c1C(=O)Nc1nnnn1C [A-1, N^1-(6-bromo-4-fluoro-2-methyl-3-((1-methyl-1H-tetrazol-5-yl)carbamoyl)phenyl)-N^2,N^2-dimethyloxalamide] | 100 | 100 | 100 | 100 | – | –
CCN(C)C(=O)C(=O)Nc1c(Br)cc(F)c(C(=O)Nc2nnnn2C)c1C [A-2] | 100 | 100 | 100 | 100 | 191 to 194 | –
Cc1c(NC(=O)C(=O)N(C)CC(F)(F)F)c(Br)cc(F)c1C(=O)Nc1nnnn1C [A-3] | 100 | 100 | 100 | 100 | – | Weed killing rate Alopecurus myosuroides ([5]; 16 g/ha active ingredient): 80%; Weed killing rate Alopecurus myosuroides ([5]; 63 g/ha active ingredient): 100%; Weed killing rate Alopecurus myosuroides ([5]; 250 g/ha active ingredient): 100%; Weed killing rate Setaria faberi ([6]; 16 g/ha active ingredient): 50%; Weed killing rate Setaria faberi ([6]; 63 g/ha active ingredient): 100%; Weed killing rate Setaria faberi ([6]; 250 g/ha active ingredient): 100%; Weed killing rate Zea mays ([7]; 16 g/ha active ingredient): 0%; Weed killing rate Zea mays ([7]; 63 g/ha active ingredient): 0%; Weed killing rate Zea mays ([7]; 250 g/ha active ingredient): 30%
COCCN(C)C(=O)C(=O)Nc1c(Br)cc(F)c(C(=O)Nc2nnnn2C)c1C [A-5] | 70 | 80 | 80 | – | 179 to 181 | –
Cc1c(NC(=O)C(=O)N(C)C2CC2)c(Br)cc(F)c1C(=O)Nc1nnnn1C [A-6] | 90 | 100 | 80 | 100 | 188 to 192 | –
Cc1c(NC(=O)C(=O)N2CCOCC2)c(Br)cc(F)c1C(=O)Nc1nnnn1C [A-7] | – | 70 | – | – | 244 to 246 | –
CCN(C)C(=O)C(=O)Nc1c(Br)cc(F)c(C(=O)Nc2nnnn2C)c1Cl [A-8] | 100 | 100 | 70 | 100 | 233 to 235 | –
CCN(CC)C(=O)C(=O)Nc1c(Br)cc(F)c(C(=O)Nc2nnnn2C)c1Cl [A-9] | 100 | 80 | 70 | 100 | 220 to 223 | –
CN(CC(F)(F)F)C(=O)C(=O)Nc1c(Br)cc(F)c(C(=O)Nc2nnnn2C)c1Cl [A-10] | 70 | 100 | – | 100 | 243 to 246 | –
Cc1c(C(=O)Nc2nnnn2C)ccc(Br)c1NC(=O)C(=O)N(C)CC(F)(F)F [A-11] | 100 | 100 | 100 | 100 | 204 to 206 | –
Cc1c(NC(=O)C(=O)N(C)CC(F)(F)F)cccc1C(=O)Nc1nnnn1C [A-12] | – | – | – | – | 104 to 107 | –
CCN(CC)C(=O)C(=O)Nc1c(Br)cc(F)c(C(=O)Nc2nnnn2C)c1C [A-13] | 100 | 100 | 90 | 100 | 198 to 201 | –
Cc1c(NC(=O)C(=O)N2CCCC2)c(Br)cc(F)c1C(=O)Nc1nnnn1C [A-14] | – | 80 | – | – | 275 to 278 | –
CCOC(=O)C(=O)Nc1c(Br)cc(F)c(C(=O)Nc2nnnn2C)c1C [A-15] | – | – | – | – | 154 to 157 | –
CC(=O)C(=O)Nc1c(Br)cc(F)c(C(=O)Nc2nnnn2C)c1C [A-16] | – | 70 | – | 90 | 221 to 223 | –
CON(C)C(=O)C(=O)Nc1c(Br)cc(F)c(C(=O)Nc2nnnn2C)c1C [A-17] | – | – | – | – | 212 to 215 | –
Cc1c(C(=O)Nc2nnnn2C)ccc(C(F)(F)F)c1NC(=O)C(=O)N(C)CC(F)(F)F [A-18] | – | – | – | – | 190 to 193 | –
Cc1c(NC(=O)N(C)CC(F)(F)F)c(Br)cc(F)c1C(=O)Nc1nnnn1C [B-1, reference compound] | – | – | – | – | – | Weed killing rate Alopecurus myosuroides ([5]; 16 g/ha active ingredient): 40%; Weed killing rate Alopecurus myosuroides ([5]; 63 g/ha active ingredient): 50%; Weed killing rate Alopecurus myosuroides ([5]; 250 g/ha active ingredient): 90%; Weed killing rate Setaria faberi ([6]; 16 g/ha active ingredient): 20%; Weed killing rate Setaria faberi ([6]; 63 g/ha active ingredient): 50%; Weed killing rate Setaria faberi ([6]; 250 g/ha active ingredient): 100%; Weed killing rate Zea mays ([7]; 16 g/ha active ingredient): 20%; Weed killing rate Zea mays ([7]; 63 g/ha active ingredient): 30%; Weed killing rate Zea mays ([7]; 250 g/ha active ingredient): 90%
